The values below come from US6733777B2, “Cationic reagents of transfection” (Qiagen GmbH, priority 1996, dated 2004).

Like-named read-outs stand apart in the source and are kept apart here. Marks after values point to notes of the source that are not given here.

For experiment [1], the system named is HeLaS3 cells. Briefly: Transfection of HeLaS3 cells with pCMVβ, β-Gal activity assay (cytofectins having three ammonium groups). The following applies: liposome with DOPE, 0.5 μg pCMVβ. The class given is cell-based. As for the experimental part:
(§1) N,N′,N″-trialkyl-N,N,N′,N″,N″-pentamethyl-bis-(2-ammonioethyl)ammoniumbromide Liposomes comprising compound (3) [synthesis according to Example 1B] and DOPE were prepared at 60° C., using DOPE without sonication.
(§2) Cells were incubated for 48 hours at 37° C., 5% CO2 and then lysed.
(§3) The results below (Table 7) indicate the optimal transfection efficiency of the reporter plasmid pCMVβ using the above-mentioned liposomes as a percentage of the highest transfection efficiency obtained by Lipofectamine. R indicates the number of carbons in the alkyl chain. Concentration of DOPE in each liposome may be calculated by multiply the X(DOPE) value by […].

Another experiment relates to COS7 cells. The experiment is described as follows: Transfection of COS7 cells with pCMVβ, β-Gal activity assay (cytofectins having three ammonium groups). It counts as cell-based. The following applies: liposome with DOPE, 0.5 μg pCMVβ. As for the experimental part:
as §1, §2, §3

Experiment [2] relates to HeLaS3 cells. Briefly: Transfection of HeLaS3 cells with pCMVβ, β-Gal activity assay (variation of counter ion). It counts as cell-based. The following applies: 10-2-10 cytofectin with the given counter ion; for Results (%) (optimal transfection efficiency as percentage of the highest efficiency obtained by Lipofectamine): liposome with DOPE, 0.5 μg pCMVβ; for ranking of transfection efficiency among the counter ions (in words) / transfection efficiency compared with Lipofectamine (in words): liposomes with DOPE. As for the experimental part: Liposomes were used to transfect HeLaS3 cells in vitro with the reporter plasmid pCMVβ (Clontech). […] Cells were incubated for 48 hours at 37° C., 5% CO2 and then lysed.
In similar studies in HeLaS3 cells, the same vector was transfected with liposomes comprising bromide counter ions and the cytofectin, 10-2-10 Ethandiyl-1,2-bis(decyl dimethylammonium).

Another experiment relates to Huh7 cells. As to conditions: Huh7, liposome with DOPE, 0.5 μg pCMVβ.
Where [3] appears, read: X(DOPE) 0.5, without sonication.
The mark [4] stands for this setting: X(DOPE) 0.6, without sonication.
The mark [5] stands for this setting: X(DOPE) 0.7, without sonication.
Setting [6] is: X(DOPE) 0.8, without sonication.
The mark [7] stands for this setting: X(DOPE) 0.50, without sonication.
Where [8] appears, read: X(DOPE) 0.60, without sonication.
Where [9] appears, read: X(DOPE) 0.70, without sonication.
Setting [10] is: X(DOPE) 0.80, without sonication.

Experimental for Huh7 cells: The resulting liposomes were used to transfect Huh7 cells in vitro with the reporter plasmid pCMVβ (Clontech). Transfection efficiencies, as obtained by OD measurements after cell-lysis and β-Gal activity assay, were compared to efficiencies obtained in parallel with a commercially available liposome-preparation (Lipofectamine, Gibco LTI) and given as percentage of Lipofectamine efficiency. For each transfection, 0.5 μg of pCMVβ (isolated with EndoFree, QIAGEN) was used per well of a 96 well plate. The DNA was diluted to 50 μl with DMEM medium (Gibco LTI) and combined with 1, 2, 3 and 4 μl of the liposome preparations subsequently diluted to 50 μl with DMEM medium. DNA and liposome solutions were mixed and applied to the cells for 6 hours at 37° C., 5% CO2. Afterwards, medium was changed to DMEM containing 10% fetal calf serum. Cells were lysed after 48 h incubation at 37° C., 5% CO2. Twofold determinations each were performed. The values were averaged and the highest efficiency (optimum) within a row was given as percentage value of the highest efficiency (optimum) obtained with Lipofectamine.

In the case of `CCCCCCCCCC[N+](C)(C)CC[N+](C)(CCCCCCCCCC)CC[N+](C)(C)CCCCCCCCCC.[Br-].[Br-].[Br-]` [R = 10, N,N′,N″-tridecyl-N,N,N′,N″,N″-pentamethyl-bis-(2-ammonioethyl)-ammoniumbromide], the “Results HeLaS3 (%) (optimal transfection efficiency as percentage of the highest efficiency obtained by Lipofectamine)” value in the experiment with HeLaS3 cells [1] (setting [3]) was determined as 231%; with HeLaS3 cells [1] (setting [4]), 222%; with HeLaS3 cells [1] (setting [5]), 52%; in the experiment on HeLaS3 cells [1] (setting [6]), 47%. Also, the “Results COS7 (%) (optimal transfection efficiency as percentage of the highest efficiency obtained by Lipofectamine)” value with COS7 cells (setting [3]) amounted to 11%; with COS7 cells (setting [4]), 9%; with COS7 cells (setting [5]) it was 16%; in the experiment on COS7 cells (setting [6]), 20%.
Consider `CCCCCCCCCCCC[N+](C)(C)CC[N+](C)(CCCCCCCCCCCC)CC[N+](C)(C)CCCCCCCCCCCC.[Br-].[Br-].[Br-]` [R = 12, N,N′,N″-tridodecyl-N,N,N′,N″,N″-pentamethyl-bis-(2-ammonioethyl)-ammoniumbromide], for which the “Results HeLaS3 (%) (optimal transfection efficiency as percentage of the highest efficiency obtained by Lipofectamine)” value with HeLaS3 cells [1] (setting [3]) is reported as 0%; in the experiment with HeLaS3 cells [1] (setting [4]), 9%; in the experiment on HeLaS3 cells [1] (setting [5]), 17%; in the experiment on HeLaS3 cells [1] (setting [6]), 63%. Also, the “Results COS7 (%) (optimal transfection efficiency as percentage of the highest efficiency obtained by Lipofectamine)” value in the experiment with COS7 cells (setting [3]) was 3%; in the experiment on COS7 cells (setting [4]), 5%; in the experiment with COS7 cells (setting [5]) it was 8%; with COS7 cells (setting [6]), 29%.
With `CCCCCCCCCCCCCC[N+](C)(C)CC[N+](C)(CCCCCCCCCCCCCC)CC[N+](C)(C)CCCCCCCCCCCCCC.[Br-].[Br-].[Br-]` [R = 14, N,N′,N″-tritetradecyl-N,N,N′,N″,N″-pentamethyl-bis-(2-ammonioethyl) ammoniumbromide], the “Results HeLaS3 (%) (optimal transfection efficiency as percentage of the highest efficiency obtained by Lipofectamine)” value with HeLaS3 cells [1] (setting [3]) was found to be 7%; in the experiment on HeLaS3 cells [1] (setting [4]), 7%; with HeLaS3 cells [1] (setting [5]) it was 9%; with HeLaS3 cells [1] (setting [6]) it was 35%. In addition, the “Results COS7 (%) (optimal transfection efficiency as percentage of the highest efficiency obtained by Lipofectamine)” value with COS7 cells (setting [3]) stood at 8%; with COS7 cells (setting [4]), 9%; with COS7 cells (setting [5]) it was 12%; in the experiment with COS7 cells (setting [6]) it was 58%.
Consider `CCCCCCCCCCCCCCCC[N+](C)(C)CC[N+](C)(CCCCCCCCCCCCCCCC)CC[N+](C)(C)CCCCCCCCCCCCCCCC.[Br-].[Br-].[Br-]` [R = 16, N,N′,N″-trihexadecyl-N,N,N′,N″,N″-pentamethyl-bis-(2-ammonioethyl)-ammoniumbromide], for which the “Results HeLaS3 (%) (optimal transfection efficiency as percentage of the highest efficiency obtained by Lipofectamine)” value with HeLaS3 cells [1] (setting [3]) is recorded as 31%; in the experiment on HeLaS3 cells [1] (setting [4]), 39%; in the experiment with HeLaS3 cells [1] (setting [5]) it was 70%; in the experiment on HeLaS3 cells [1] (setting [6]), 75%. Further, the “Results COS7 (%) (optimal transfection efficiency as percentage of the highest efficiency obtained by Lipofectamine)” value is given as 18% in the experiment on COS7 cells (setting [3]), 16% in the experiment on COS7 cells (setting [4]), 44% in the experiment with COS7 cells (setting [5]) and 38% in the experiment with COS7 cells (setting [6]).
Consider `CCCCCCCCCCCCCCCCCC[N+](C)(C)CC[N+](C)(CCCCCCCCCCCCCCCCCC)CC[N+](C)(C)CCCCCCCCCCCCCCCCCC.[Br-].[Br-].[Br-]` [R = 18, N,N′,N″-trioctadcyl-N,N,N′,N″,N″-pentamethyl-bis-(2-ammonioethyl)-ammoniumbromide], for which the “Results HeLaS3 (%) (optimal transfection efficiency as percentage of the highest efficiency obtained by Lipofectamine)” value with HeLaS3 cells [1] (setting [3]) is reported as 65%; with HeLaS3 cells [1] (setting [4]), 61%; in the experiment on HeLaS3 cells [1] (setting [5]) it was 80%; in the experiment on HeLaS3 cells [1] (setting [6]) it was 61%. Besides, the “Results COS7 (%) (optimal transfection efficiency as percentage of the highest efficiency obtained by Lipofectamine)” value came to 20% in the experiment on COS7 cells (setting [3]), 34% with COS7 cells (setting [4]), 79% with COS7 cells (setting [5]) and 93% with COS7 cells (setting [6]).
Consider `CCCCCCCCCC[N+](C)(C)CC[N+](C)(C)CCCCCCCCCC.O=P([O-])(O)O.O=P([O-])(O)O` [dihydrogenphosphate, Ethanediyl-1,2-bis(decyldimethylammonium) dihydrogenphosphate], for which the “Results (%) (optimal transfection efficiency as percentage of the highest efficiency obtained by Lipofectamine)” value in the experiment with HeLaS3 cells [2] (setting [7]) is 1966%; with HeLaS3 cells [2] (setting [8]) it was > 3230* %; in the experiment with HeLaS3 cells [2] (setting [9]), 580%; in the experiment with HeLaS3 cells [2] (setting [10]) it was 615%. For the same compound, the “ranking of transfection efficiency among the counter ions (in words)” value in the experiment with HeLaS3 cells [2] is “highest transfection efficiencies”. The “transfection efficiency compared with Lipofectamine (in words)” value with HeLaS3 cells [2] is “higher transfection efficiency values than transfections with Lipofectamine”.
For `CCCCCCCCCC[N+](C)(C)CC[N+](C)(C)CCCCCCCCCC.O=C([O-])C(=O)[O-]` [oxalate, Ethanediyl-1,2-bis(decyldimethylammonium) oxalate], the “Results (%) (optimal transfection efficiency as percentage of the highest efficiency obtained by Lipofectamine)” value with HeLaS3 cells [2] (setting [7]) is listed as 275%; in the experiment on HeLaS3 cells [2] (setting [8]) it was 0%; in the experiment on HeLaS3 cells [2] (setting [9]), 0%; in the experiment on HeLaS3 cells [2] (setting [10]) it was 0%.
For `CCCCCCCCCC[N+](C)(C)CC[N+](C)(C)CCCCCCCCCC.O=S(=O)([O-])[O-]` [sulfate, ethanediyl-1,2-bis(dimethyldecylammonium sulfate)], the “Results (%) (optimal transfection efficiency as percentage of the highest efficiency obtained by Lipofectamine)” value in the experiment on HeLaS3 cells [2] (setting [7]) stood at 879%; in the experiment on HeLaS3 cells [2] (setting [8]), 927%; in the experiment on HeLaS3 cells [2] (setting [9]) it was 265%; in the experiment on HeLaS3 cells [2] (setting [10]), 1201%. In addition, the “transfection efficiency compared with Lipofectamine (in words)” value in the experiment on HeLaS3 cells [2] is “higher transfection efficiency values than transfections with Lipofectamine”.
For the compound “Ethanediyl-1,2-bis(decyl dimethylammonium) iodide”, the “Results (%) (optimal transfection efficiency as percentage of the highest efficiency obtained by Lipofectamine)” value is > 3230* % in the experiment with HeLaS3 cells [2] (setting [7]), > 3230* % in the experiment on HeLaS3 cells [2] (setting [8]), 686% with HeLaS3 cells [2] (setting [9]) and 457% with HeLaS3 cells [2] (setting [10]). Also, in the experiment on HeLaS3 cells [2], the “ranking of transfection efficiency among the counter ions (in words)” value was “highest transfection efficiencies”. The “transfection efficiency compared with Lipofectamine (in words)” value in the experiment on HeLaS3 cells [2] is on record as “higher transfection efficiency values than transfections with Lipofectamine”.
Turning to “Ethanediyl-1,2-bis(decyl dimethylammonium) thiosulfate”, the “Results (%) (optimal transfection efficiency as percentage of the highest efficiency obtained by Lipofectamine)” value with HeLaS3 cells [2] (setting [7]) is recorded as 1552%; with HeLaS3 cells [2] (setting [8]), 1915%; in the experiment on HeLaS3 cells [2] (setting [9]) it was 605%; in the experiment on HeLaS3 cells [2] (setting [10]) it was 844%. In addition, the “transfection efficiency compared with Lipofectamine (in words)” value with HeLaS3 cells [2] was “higher transfection efficiency values than transfections with Lipofectamine”.
As to “Ethanediyl-1,2-bis(dodecyl dimethylammonium bromide) [12-2-12]”, the “Result (%) (transfection efficiency as percentage of Lipofectamine efficiency)” value in the experiment with Huh7 cells (setting [7]) came to 70%; in the experiment with Huh7 cells (setting [8]), 127%; in the experiment with Huh7 cells (setting [9]), 138%; in the experiment with Huh7 cells (setting [10]), 89%.
